Target: T1, MD-2 (measured as TLR4/MD-2 complex) (Homo sapiens, UniProt Q9Y6Y9)
T1 construct: gene LY96; recombinant human TLR4/MD-2; His-Flag TLR4/MD-2 protein; with TLR4
Experiment: SPR (Biacore T200, CM5 chip, immobilised TLR4/MD-2 complex)
Type: binding

T1 sequence (Q9Y6Y9 19-160): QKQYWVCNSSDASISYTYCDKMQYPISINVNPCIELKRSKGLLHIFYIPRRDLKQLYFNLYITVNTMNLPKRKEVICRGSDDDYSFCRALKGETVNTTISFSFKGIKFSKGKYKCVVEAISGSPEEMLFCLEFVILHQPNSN
T1 sequence (O00206 24-839 partner): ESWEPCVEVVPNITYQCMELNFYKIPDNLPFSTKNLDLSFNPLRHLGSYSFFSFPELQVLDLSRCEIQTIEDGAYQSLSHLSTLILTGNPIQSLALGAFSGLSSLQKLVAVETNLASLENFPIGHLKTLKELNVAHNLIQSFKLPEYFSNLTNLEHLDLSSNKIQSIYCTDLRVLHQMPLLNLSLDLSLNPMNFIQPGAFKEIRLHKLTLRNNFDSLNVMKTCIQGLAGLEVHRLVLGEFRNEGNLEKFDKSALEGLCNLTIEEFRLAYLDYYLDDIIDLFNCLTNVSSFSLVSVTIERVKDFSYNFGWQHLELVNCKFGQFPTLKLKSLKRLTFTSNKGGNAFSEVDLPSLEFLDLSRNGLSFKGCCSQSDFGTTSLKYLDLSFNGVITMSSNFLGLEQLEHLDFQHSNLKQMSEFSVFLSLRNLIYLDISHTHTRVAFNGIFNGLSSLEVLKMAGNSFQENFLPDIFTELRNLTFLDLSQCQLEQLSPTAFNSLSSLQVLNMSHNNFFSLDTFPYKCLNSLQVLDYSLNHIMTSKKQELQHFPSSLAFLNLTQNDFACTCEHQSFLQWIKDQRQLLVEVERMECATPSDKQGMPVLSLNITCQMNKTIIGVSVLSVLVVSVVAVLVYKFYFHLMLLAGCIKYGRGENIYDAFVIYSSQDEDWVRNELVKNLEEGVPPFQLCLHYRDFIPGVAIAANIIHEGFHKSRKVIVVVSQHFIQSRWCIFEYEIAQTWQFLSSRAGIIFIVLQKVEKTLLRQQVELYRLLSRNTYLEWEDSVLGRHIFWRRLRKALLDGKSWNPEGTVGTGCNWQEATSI

Q: For CC(C)=CCC[C@](C)(O)[C@H]1CC[C@]2(C)[C@@H]1[C@H](O)C[C@@H]1[C@@]3(C)CC[C@H](O[C@@H]4O[C@H](CO)[C@@H](O)[C@H](O)[C@H]4O)C(C)(C)[C@@H]3CC[C@]12C [G-Rh2, Ginsenoside Rh2], which Kd is on record?
A: The Kd was 71.2 µM.

Reference: publication PMC11395244, “Ginsenoside Rh2 Alleviates LPS-Induced Inflammatory Responses by Binding to TLR4/MD-2 and Blocking TLR4 Dimerization” (International Journal of Molecular Sciences, 2024)
